In the assay the test system is alpha-MyHC. Description: alpha-MyHC cytoblot process in neonatal rat ventricular myocytes (NRVM). It counts as cell-based. The following applies: NRVM, 72 hours; for EC50: alpha-MyHC cytoblot; for Max Plateau: maximum of dose response fit.
[1] abbreviates: Table 1, low control = vehicle only.

Usually EC50 stands for the concentration giving half of the maximal effect. High values mean a need for much substance, low ones an effect from little substance. In turn, `CCCC(=O)C1=C(CCC)Nc2sc(C(=O)c3cc(Cl)ccc3Cl)c(N)c2C1c1ccccc1` (stereo not shown) [Compound 94] came in with an EC50 (Table 1, mean ± spread) of 118 nM. Also, under setting [1], the “Max Plateau” value was 153.83 ± 13.14 per cent fraction of low control.

`CCCC(=O)C1=C(CCC)Nc2sc(C(=O)c3ccc(F)c(F)c3)c(N)c2C1c1ccccc1` (stereo not shown) [Compound 95]: the EC50 (Table 1, mean ± spread) came out at 610 nM. The “Max Plateau” value under setting [1] is given as 147.01 ± 6.43 per cent fraction of low control.

`CCC(=O)C1=C(CC)Nc2sc(C(=O)c3cccc([N+](=O)[O-])c3)c(N)c2C1c1ccccc1` (stereo not shown) [Compound 96]: where the note is “Table 1, mean ± spread”, the response was half-maximal at 17.1 nM (EC50). In addition, under setting [1], the “Max Plateau” value is listed as 254.87 ± 72.67 per cent fraction of low control.

In turn, `CCC(=O)C1=C(CC)Nc2sc(C(=O)c3cccc([N+](=O)[O-])c3)c(N)c2C1c1ccccc1F` (stereo not shown) [Compound 97] yielded an EC50 (Table 1, mean ± spread) of 1.64 nM. For the same molecule, under setting [1], the “Max Plateau” value is on record as 247.24 ± 38.88 per cent fraction of low control.

Molecule `CCC(=O)C1=C(CC)Nc2sc(C(=O)c3ccc(Cl)c(Cl)c3)c(N)c2C1c1ccnc(F)c1` (stereo not shown) [Compound 98] gave an EC50 (Table 1, mean ± spread) of 4.99 nM. Further, the “Max Plateau” value under setting [1] is recorded as 255.02 ± 32.01 per cent fraction of low control.

Take `CCC(=O)C1=C(CC)Nc2sc(C(=O)c3ccc(Cl)c(Cl)c3)c(N)c2C1c1ccnc(Cl)c1` (stereo not shown) [Compound 99]: the EC50 (Table 1, mean ± spread) was 5.23 nM. Further, under setting [1], the “Max Plateau” value was 264.37 ± 33.84 per cent fraction of low control.

For `CCC(=O)C1=C(CC)Nc2sc(C(=O)c3ccc(Cl)c(Cl)c3)c(N)c2C1c1cc(F)cc(F)c1` (stereo not shown) [Compound 100], the EC50 (Table 1, mean ± spread) is 5.73 nM. In addition, the “Max Plateau” value under setting [1] is 262.04 ± 31.65 per cent fraction of low control.

In turn, `CCC(=O)C1=C(CC)Nc2sc(C(=O)c3ccc(F)c(F)c3)c(N)c2C1c1cc(F)cc(F)c1` (stereo not shown) [Compound 101] had an EC50 (Table 1, mean ± spread) of 3.72 nM. Under setting [1], the “Max Plateau” value is listed as 230.49 ± 17.13 per cent fraction of low control.

With `CCC(=O)C1=C(CC)Nc2sc(C(=O)c3ccc(F)c(F)c3)c(N)c2C1c1ccnc(F)c1` (stereo not shown) [Compound 102], it took 4.18 nM to reach a half-maximal effect (Table 1, mean ± spread) (EC50). For the same molecule, the “Max Plateau” value under setting [1] is recorded as 269.88 ± 36.90 per cent fraction of low control.

Molecule `CCC(=O)C1=C(CC)Nc2sc(C(=O)c3cccnc3)c(N)c2C1c1ccnc(F)c1` (stereo not shown) [Compound 103] registered an EC50 (Table 1, mean ± spread) of 10.5 nM. Further, under setting [1], the “Max Plateau” value is 254.65 ± 31.26 per cent fraction of low control.

Regarding `CCC(=O)C1=C(CC)Nc2sc(C(=O)c3ccc(Cl)c(Cl)c3)c(N)c2C1c1ccncc1` (stereo not shown) [Compound 104, 1-[3-amino-2-(3,4 dichloro-benzoyl)-6-ethyl-4 pyridin-4-yl-4,7 dihydro-thieno[2,3-b]pyridin-5-yl]-propan-1-one], the “Max Plateau” value under setting [1] is reported as 242.77 ± 33.52 per cent fraction of low control.

Regarding `CCC(=O)C1=C(CC)Nc2sc(C(=O)c3ccccc3)c(N)c2C1c1cc(F)cc(F)c1` (stereo not shown) [Compound 105], the midpoint of the response (Table 1, mean ± spread), the EC50, lay at 4.38 nM. Also, the “Max Plateau” value under setting [1] is recorded as 273.18 ± 37.33 per cent fraction of low control.

For the molecule `CCC(=O)C1=C(CC)Nc2sc(C(=O)c3ccccc3Br)c(N)c2C1c1ccccc1` (stereo not shown) [Compound 106], the EC50 (Table 1, mean ± spread) is 8.93 nM. Besides, under setting [1], the “Max Plateau” value is on record as 244.21 ± 29.53 per cent fraction of low control.

The molecule `CCC(=O)C1=C(CC)Nc2sc(C(=O)c3c(Cl)cccc3Cl)c(N)c2C1c1ccccc1F` (stereo not shown) [Compound 107] showed an EC50 (Table 1, mean ± spread) of 1.67 nM. Also, the “Max Plateau” value under setting [1] is given as 273.85 ± 29.06 per cent fraction of low control.

Regarding `CCC(=O)C1=C(CC)Nc2sc(C(=O)c3ccc(F)c(F)c3)c(N)c2C1c1ccccc1F` (stereo not shown) [Compound 108, 1-[3-amino-2-(3,4 difluoro-benzoyl)-6-ethyl-4-(2 fluoro-phenyl)-4,7 dihydro-thieno[2,3-b]pyridine-5-yl]propan-1-one], the “Max Plateau” value under setting [1] is 266.30 ± 58.14 per cent fraction of low control.

For `CCC(=O)C1=C(CC)Nc2sc(C(=O)c3ccc(C#N)cc3)c(N)c2C1c1ccccc1` (stereo not shown) [Compound 112], the “Max Plateau” value under setting [1] is 266.67 ± 57.74 per cent fraction of low control.

In the case of `CCOC(=O)C1=C(C)Nc2sc(C(=O)c3ccc(Cl)c(Cl)c3)c(N)c2C1c1ccccc1` (stereo not shown) [Compound 113], for the setting “Table 2 (esters)”, the EC50 came out at 68 nM and the “Max Plateau” value is listed as 256.38 per cent fraction of low control.

In the case of `COC(=O)C1=C(C(C)C)Nc2sc(C(=O)c3ccc(Cl)c(Cl)c3)c(N)c2C1c1ccccc1` (stereo not shown) [Compound 116], under “Table 2 (esters)”, the response was half-maximal at 70 nM (EC50) and the “Max Plateau” value is reported as 107.57 per cent fraction of low control.

`COCCOC(=O)C1=C(C)Nc2sc(C(=O)c3ccc(Cl)c(Cl)c3)c(N)c2C1c1ccccc1` (stereo not shown) [Compound 119]: for the setting “Table 2 (esters)”, the EC50 worked out at 142 nM and the “Max Plateau” value is 234.93 per cent fraction of low control.

In the case of `COCC1=C(C(=O)OC)C(c2ccccc2)c2c(sc(C(=O)c3ccc(Cl)c(Cl)c3)c2N)N1` (stereo not shown) [Compound 120], for the setting “Table 2 (esters)”, a half-maximal response (EC50) required 157 nM and the “Max Plateau” value is listed as 140.79 per cent fraction of low control.

On to `CC1=C(C(=O)OCCN2CCOCC2)C(c2ccccc2)c2c(sc(C(=O)c3ccc(Cl)c(Cl)c3)c2N)N1` (stereo not shown) [Compound 126], for which, for the setting “Table 2 (esters)”, it took 210 nM to reach a half-maximal effect (EC50) and the “Max Plateau” value is listed as 193.06 ± 11.02 per cent fraction of low control.

Turning to `C=CCOC(=O)C1=C(C)Nc2sc(C(=O)c3ccc(Cl)c(Cl)c3)c(N)c2C1c1ccccc1` (stereo not shown) [Compound 127], where the note is “Table 2 (esters)”, the EC50 came out at 54 nM and the “Max Plateau” value is listed as 195.71 ± 29.42 per cent fraction of low control.

In the case of `CC1=C(C(=O)OCC2CCCN2C)C(c2ccccc2)c2c(sc(C(=O)c3ccc(Cl)c(Cl)c3)c2N)N1` (stereo not shown) [Compound 129], for the setting “Table 2 (esters)”, the EC50 was determined as 4580 nM and the “Max Plateau” value is 150.08 ± 9.89 per cent fraction of low control.

Consider `COC(=O)C1=C(C(C)(C)C)Nc2sc(C(=O)c3ccc(Cl)c(Cl)c3)c(N)c2C1c1ccccc1` (stereo not shown) [Compound 131], for which, where the note is “Table 2 (esters)”, it took 2900 nM to reach a half-maximal effect (EC50) and the “Max Plateau” value is given as 158.97 per cent fraction of low control.

Take `COC(=O)C1=C(C2CC2)Nc2sc(C(=O)c3ccc(Cl)c(Cl)c3)c(N)c2C1c1ccccc1` (stereo not shown) [Compound 133]: where the note is “Table 2 (esters)”, the EC50 was 71.5 nM and the “Max Plateau” value is recorded as 180.24 per cent fraction of low control.

Turning to `COC(=O)C1=C(C(C)C)Nc2sc(C(=O)c3ccc(Cl)c(Cl)c3)c(N)c2C1c1cccc([N+](=O)[O-])c1` (stereo not shown) [Compound 134], the “Max Plateau” value (Table 2 (esters)) was 98.33 per cent fraction of low control.

Regarding `CC1=C(C(=O)OC(C)C)C(c2ccccc2)c2c(sc(C(=O)c3ccc(Cl)c(Cl)c3)c2N)N1` (stereo not shown) [Compound 135], for the setting “Table 2 (esters)”, the midpoint of the response, the EC50, lay at 118 nM and the “Max Plateau” value is on record as 186.32 per cent fraction of low control.

As to `CCC1=C(C(=O)OC)C(c2c(F)cccc2F)c2c(sc(C(=O)c3ccc(Cl)c(Cl)c3)c2N)N1` (stereo not shown) [Compound 137], for the setting “Table 2 (esters)”, the EC50 turned out to be 15.6 nM and the “Max Plateau” value was 213.90 per cent fraction of low control.

For `CCC1=C(C(=O)OC)C(c2ccccc2)c2c(sc(C(=O)c3cccc([N+](=O)[O-])c3)c2N)N1` (stereo not shown) [Compound 139], for the setting “Table 2 (esters)”, the EC50 stood at 6.91 nM and the “Max Plateau” value is 281.08 per cent fraction of low control.

With `CCC1=C(C(=O)OC)C(c2ccccc2F)c2c(sc(C(=O)c3cccc([N+](=O)[O-])c3)c2N)N1` (stereo not shown) [Compound 140], under “Table 2 (esters)”, it took 2.42 nM to reach a half-maximal effect (EC50) and the “Max Plateau” value is on record as 266.63 per cent fraction of low control.

`CCC1=C(C(=O)OC)C(c2c(F)cccc2F)c2c(sc(C(=O)c3cccc([N+](=O)[O-])c3)c2N)N1` (stereo not shown) [Compound 141]: under “Table 2 (esters)”, a half-maximal response (EC50) required 14.3 nM and the “Max Plateau” value is on record as 261.69 per cent fraction of low control.

For the origin of these results see patent US20110105496A1, “Methods For The Treatment Of Myosin Heavy Chain-Mediated Conditions Using 4,7-Dihydrothieno[2,3-B]Pyridine Compounds” (priority 2005, published 2011).
